Here are results for four compounds from patent publication US10253027B2, “Aryl lactam kinase inhibitors” (Bristol-Myers Squibb Company, priority 2013, dated 2019).

One test has as its system mice. The test is described as follows: formalin paw test (paw flinching, pain response). The format is in vivo, mouse. As for the experimental part: AAK1 homozygous (−/−) and their wild-type (+/+) littermates were tested using the formalin paw test in order to assess their acute and tonic nociceptive responses. For these tests, Automatic Nociception Analyzers (purchased from the Ozaki lab at University of California, San Diego) were used. A metal band was placed around the left hind paw of each mouse 30 minutes prior to testing. After the 30-minute acclimation period, 20 μl of 5% formalin is subcutaneously injected in the dorsal surface of the left hind paw. Mice were individually housed in cylindrical chambers for 45 minutes. Fresh 5% formalin solution was prepared by diluting formaldehyde (Formalde-fresh 20%, Fisher Scientific, Fair Lawn, N.J.) with distilled water. Investigatory compounds were administered 30 minutes prior to formalin injection.
A computer recorded flinches per minute, total flinches for phase I (acute phase=first 8 minutes), and total flinches for phase II (tonic phase=time between minutes 20-40) through an electromagnetic field. See Yaksh T L, Ozaki G, McCumber D, Rathbun M, Svensson C, Malkmus S, Yaksh M C. An automated flinch detecting system for use in the formalin nociceptive bioassay. J Appl Physiol., 2001; 90:2386-402. Phase 1 and phase 2 data were obtained using homozygous (−/−) mice females (n=16), wild-type females (n=15), homozygous (−/−) mice males (n=9), and wild-type males (n=18).
The same test was used to confirm that the administration of an AAK1 inhibitor can also affect pain response.
A compound of the disclosure was tested in this assay at different doses. Gabapentin and pregabalin were used as positive controls. Results are shown below in Table 3, wherein the effect of gabapentin at 200 mg/kg is considered a 100% response, the % response for the other compounds is relative to the 200 mg/kg dose of gabapentin, “sc” means subcutaneous administration; “po” means oral administration.

The target of a further test is T1, GST-Xa-hAAK1 (Homo sapiens, UniProt Q2M2I8).
T1 construct: made in house
T1 sequence (Q2M2I8 whole entry): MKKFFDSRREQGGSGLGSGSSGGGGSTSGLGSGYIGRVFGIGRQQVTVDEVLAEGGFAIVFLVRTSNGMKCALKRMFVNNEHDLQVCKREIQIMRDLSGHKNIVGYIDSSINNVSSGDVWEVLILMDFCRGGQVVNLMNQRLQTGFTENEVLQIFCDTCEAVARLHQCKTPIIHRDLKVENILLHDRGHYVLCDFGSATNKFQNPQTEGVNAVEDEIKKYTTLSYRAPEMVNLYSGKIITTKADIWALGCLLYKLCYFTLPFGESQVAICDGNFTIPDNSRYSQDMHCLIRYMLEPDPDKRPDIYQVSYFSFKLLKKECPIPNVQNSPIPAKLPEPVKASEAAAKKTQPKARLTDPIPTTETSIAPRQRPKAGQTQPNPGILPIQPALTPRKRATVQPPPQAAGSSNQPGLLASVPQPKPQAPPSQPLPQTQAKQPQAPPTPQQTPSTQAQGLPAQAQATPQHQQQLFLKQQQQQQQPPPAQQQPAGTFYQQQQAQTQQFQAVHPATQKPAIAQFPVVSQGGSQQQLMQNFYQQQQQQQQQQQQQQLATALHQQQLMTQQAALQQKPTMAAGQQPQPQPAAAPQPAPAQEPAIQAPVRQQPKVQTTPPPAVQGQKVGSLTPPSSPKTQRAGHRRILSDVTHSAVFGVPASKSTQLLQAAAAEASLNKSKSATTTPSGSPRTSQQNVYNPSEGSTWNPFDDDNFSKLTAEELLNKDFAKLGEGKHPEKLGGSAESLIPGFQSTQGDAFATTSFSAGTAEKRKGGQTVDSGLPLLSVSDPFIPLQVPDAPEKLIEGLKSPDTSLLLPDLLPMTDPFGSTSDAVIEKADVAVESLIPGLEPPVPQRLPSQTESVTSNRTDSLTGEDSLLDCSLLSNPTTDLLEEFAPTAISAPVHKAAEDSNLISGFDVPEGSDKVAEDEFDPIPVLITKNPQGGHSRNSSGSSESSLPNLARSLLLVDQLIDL
The test is described as follows: AAK1 Kinase Assay. The format is biochemical. To be noted: IC50 (nM), ATP 22 μM; 3 hours at room temperature; Caliper LabChip 3000. The procedure, abridged: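 Bacterially expressed GST-Xa-hAAK1 was combined with substrates and compounds (eleven concentrations) and incubated 3 h at room temperature, then stopped with EDTA. Fluorescent substrate and phosphorylated product were separated electrophoretically (Caliper LabChip), and IC50 values came from non-linear regression.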

Where [1] appears, read: 50 mg/kg sc, % response relative to gabapentin 200 mg/kg (=100%), compound given 30 minutes prior to formalin.
Where [2] appears, read: 60 mg/kg sc, % response relative to gabapentin 200 mg/kg (=100%), compound given 30 minutes prior to formalin.

As to `CC(C)C[C@H](CN)CC(=O)O` [Pregabalin, pregabalin], the Response in the test with mice (setting [1]) is 90%.

As for `CC(C)C[C@@H](N)C(=O)Nc1ccc(-c2cnco2)c(OC(F)F)c1` [Example 18, (R)-2-Amino-N-(3-(difluoromethoxy)-4-(oxazol-5-yl)phenyl)-4-methylpentanamide], the IC50 at GST-Xa-hAAK1 was determined as 35 nM. The same compound returned a Response with mice (setting [2]) of 100%.

`COc1cc(NC(=O)[C@H](N)CC(C)C)ccc1-c1cnco1` [Example 1, (R)-2-Amino-N-(3-methoxy-4-(oxazol-5-yl)phenyl)-4-methylpentanamide]: at GST-Xa-hAAK1, the half-inhibitory concentration (IC50) amounted to 36 nM. The Response with mice (setting [2]) was 90%.

`NCC1(CC(=O)O)CCCCC1` [Gabapentin]: the Response is 60% in the test on mice (setting [1]) and 100% with mice (200 mg/kg sc, gabapentin at 200 mg/kg is considered a 100% response).
